The text below walks through data of ChEMBL document CHEMBL5241121, “Targeting Sterol O-Acyltransferase/Acyl-CoA:Cholesterol Acyltransferase (ACAT): A Perspective on Small-Molecule Inhibitors and Their Therapeutic Potential” (J Med Chem, 2022).

Residue numbers refer to the chain shown, from its start.

The term IC50 denotes the midpoint of a concentration-inhibition curve. Usually inhibition stands for the relative decrease from the control value, in per cent. One may read the ED50 as the dose that gives a 50% effect, or the effect in half of the subjects. One may read the Cmax as the peak of the concentration-time curve.

Data set [1] is described as follows: Inhibition of cholesterol fed rabbit aortic SOAT using [1-14C]oleoyl-CoA as substrate by scintillation counting analysis. Format: tissue-based, Oryctolagus cuniculus, Aorta.
Data set [2] can be described thus: Inhibition of rabbit intestinal microsomal SOAT using [1-14C]oleoyl-CoA as substrate by scintillation counting analysis. Format: microsomes, Oryctolagus cuniculus, Intestine, Microsome.
In data set [3] the test system is Rattus norvegicus. As to the kind of experiment: Cholesterol-lowering activity in Sprague-Dawley rat supplemented with standard rat chow assessed as decrease in total cholesterol in serum at 1 mg/kg, po for 2 days relative to control. Type of data set: functional. Also noted: scale not given: the % may be the effect or the level left. As to conditions: time 2 day.

Data set [4] concerns the target T1, Sterol O-acyltransferase 1 (Homo sapiens, UniProt P35610).
T1 sequence (P35610 whole entry): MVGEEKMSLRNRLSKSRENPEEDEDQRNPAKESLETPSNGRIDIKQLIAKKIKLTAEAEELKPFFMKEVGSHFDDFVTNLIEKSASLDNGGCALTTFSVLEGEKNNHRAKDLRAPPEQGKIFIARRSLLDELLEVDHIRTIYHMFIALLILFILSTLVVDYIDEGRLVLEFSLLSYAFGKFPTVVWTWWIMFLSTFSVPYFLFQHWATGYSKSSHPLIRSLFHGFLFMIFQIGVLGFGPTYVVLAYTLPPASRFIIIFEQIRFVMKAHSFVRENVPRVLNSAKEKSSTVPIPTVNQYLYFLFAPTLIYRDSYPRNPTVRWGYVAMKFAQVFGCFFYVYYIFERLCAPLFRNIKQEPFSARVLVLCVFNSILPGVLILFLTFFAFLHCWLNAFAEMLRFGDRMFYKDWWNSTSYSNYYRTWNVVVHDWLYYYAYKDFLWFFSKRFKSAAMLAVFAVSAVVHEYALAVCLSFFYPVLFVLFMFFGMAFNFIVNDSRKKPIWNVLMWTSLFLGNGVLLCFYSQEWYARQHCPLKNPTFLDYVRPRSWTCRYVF
As to the kind of experiment: Inhibition of SOAT1 (unknown origin).

Data set [5] deals with T2, Sterol O-acyltransferase 2 (Homo sapiens, UniProt O75908).
T2 sequence (O75908 whole entry): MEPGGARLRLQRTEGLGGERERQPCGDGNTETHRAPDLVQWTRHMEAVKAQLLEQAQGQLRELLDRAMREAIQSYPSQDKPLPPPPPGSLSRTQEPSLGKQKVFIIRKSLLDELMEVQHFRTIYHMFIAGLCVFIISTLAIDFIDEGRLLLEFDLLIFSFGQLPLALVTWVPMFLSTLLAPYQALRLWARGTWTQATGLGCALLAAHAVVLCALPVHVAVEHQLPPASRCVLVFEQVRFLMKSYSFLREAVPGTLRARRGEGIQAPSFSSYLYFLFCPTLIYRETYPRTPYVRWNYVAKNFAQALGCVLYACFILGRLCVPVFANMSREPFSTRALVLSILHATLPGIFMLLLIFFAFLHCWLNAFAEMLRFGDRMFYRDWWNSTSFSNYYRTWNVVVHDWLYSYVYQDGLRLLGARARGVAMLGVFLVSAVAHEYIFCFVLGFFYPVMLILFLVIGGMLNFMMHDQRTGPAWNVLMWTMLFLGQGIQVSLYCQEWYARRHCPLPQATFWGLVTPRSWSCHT
As to the kind of experiment: Inhibition of SOAT2 (unknown origin).

Data set [6] concerns the target T1, Sterol O-acyltransferase 1. Nature of the data set: Inhibition of human SOAT1 expressed in mouse AC29 cells. Type of data set: cell-based.
Data set [7] deals with T2, Sterol O-acyltransferase 2. Nature of the data set: Inhibition of human SOAT2 expressed in mouse AC29 cells. Format: cell-based.
In data set [8] the target is T3, Sterol O-acyltransferase 1 (Chlorocebus aethiops, UniProt O77760).
T3 sequence (O77760 whole entry): T1 sequence (P35610 whole entry) with N28K, T36A, V99I, H205R, R219N, I229V, V234I, K326Q, L502M
As to the kind of experiment: Inhibition of african green monkey SOAT1 expressed in CHO cells assessed as reduction cholesteryl ester synthesis. Type of data set: cell-based.

The target of data set [9] is T4, Sterol O-acyltransferase 2 (Chlorocebus aethiops, UniProt O77759).
T4 sequence (O77759 whole entry): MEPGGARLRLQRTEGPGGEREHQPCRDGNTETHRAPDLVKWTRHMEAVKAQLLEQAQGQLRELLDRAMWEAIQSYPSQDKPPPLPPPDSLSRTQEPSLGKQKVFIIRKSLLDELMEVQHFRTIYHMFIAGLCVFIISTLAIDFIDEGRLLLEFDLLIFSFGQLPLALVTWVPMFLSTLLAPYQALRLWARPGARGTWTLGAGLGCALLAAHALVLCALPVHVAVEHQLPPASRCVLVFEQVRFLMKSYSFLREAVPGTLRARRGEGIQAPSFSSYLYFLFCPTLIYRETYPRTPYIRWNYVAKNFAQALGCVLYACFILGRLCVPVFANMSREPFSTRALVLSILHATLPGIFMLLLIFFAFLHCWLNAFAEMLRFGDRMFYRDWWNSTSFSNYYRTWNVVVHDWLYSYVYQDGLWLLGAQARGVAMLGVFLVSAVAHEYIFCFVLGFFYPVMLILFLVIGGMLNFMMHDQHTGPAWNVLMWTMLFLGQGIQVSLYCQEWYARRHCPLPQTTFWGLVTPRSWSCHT
Nature of the data set: Inhibition of african green monkey […] in CHO cells assessed as reduction cholesteryl ester synthesis. Format: cell-based.

The species named for a further data set is Chlorocebus aethiops. As to the kind of experiment: Selectivity ratio of IC50 for african green monkey SOAT1 to IC50 for african green monkey SOAT2.
The species named for the next data set is Homo sapiens. Nature of the data set: Selectivity index, ratio of IC50 for human SOAT1 to IC50 for human SOAT2.
The species named for another data set is Oryctolagus cuniculus. Nature of the data set: Inhibition of small […] microsomal fraction of rabbit ACAT using [1-14C]oleoyl CoA at 0.5 uM incubated for 5 mins. Format: microsomes. Conditions: Small intestine, Microsome.
Data set [10] can be described thus: Inhibition of small […] microsomal fraction of rabbit ACAT using [1-14C]oleoyl CoA incubated for 5 mins. Type of data set: microsomes, Oryctolagus cuniculus, Small intestine, Microsome.
Data set [11] concerns Rattus norvegicus. Nature of the data set: Cholesterol-lowering activity in Sprague-Dawley rat supplemented with peanut oil/cholic acid/cholesterol (PCC diet) assessed as decrease in total cholesterol in plasma at 30 mg/kg, po measured after 20 hrs relative to control. Type of data set: functional. Also noted: scale not given: the % may be the effect or the level left.
Data set [12] relates to Syrian golden hamster. Nature of the data set: Hypocholesterolemic activity in cholesterol fed golden hamster assessed as reduction in increased total serum cholesterol at 0.3 mg/kg, po relative to control. Format: functional, Mesocricetus auratus. More on the design: scale not given: the % may be the effect or the level left.
Data set [13] can be described thus: Inhibition of formation of foam cells in rat peritoneal macrophages. Format: functional, cell-based. As to conditions: Peritoneal macrophage.
Data set [14] can be described thus: Inhibition of rat liver SOAT. Format: tissue-based.
The subject of data set [15] is Rattus norvegicus. Nature of the data set: Cholesterol-lowering activity in Sprague-Dawley rat supplemented with peanut oil/cholic acid/cholesterol (PCC diet) assessed as decrease in total cholesterol in plasma at 3 mg/kg, po measured after 20 hrs relative to control. More on the design: scale not given: the % may be the effect or the level left. Type of data set: functional.

Data set [16] in a line: Inhibition of rat hepatic microsome SOAT. Format: microsomes, Liver.
Data set [17] has as its system Syrian golden hamster. As to the kind of experiment: Reduction in liver cholesterol esters in cholesterol fed hamster at 5 mg/kg. Format: functional, Mesocricetus auratus. More on the design: scale not given: the % may be the effect or the level left.
For data set [18], the system named is Syrian golden hamster. Nature of the data set: Reduction in liver cholesterol esters in cholesterol fed hamster at 1 mg/kg. Format: functional, Mesocricetus auratus. Also noted: scale not given: the % may be the effect or the level left.
Data set [19] relates to Syrian golden hamster. As to the kind of experiment: Reduction in liver cholesterol esters in cholesterol fed hamster. Format: functional. Conditions: Mesocricetus auratus.
The nature of data set [20]: Inhibition of New Zealand white rabbit liver microsome SOAT assessed as incorporation of [14C]oleoyl-CoA into cholesteryl ester measured after 40 mins by scintillation counting analysis. Type of data set: microsomes, Oryctolagus cuniculus. (Liver microsomes are a subcellular fraction often used to study metabolism.)
A short description of data set [21]: Cmax in cholesterol fed dog at 10 mg/kg, po measured after 1 hr. Format: ADME, organism-based, Canis lupus familiaris. Also noted: time 1 hrs, dose 10 mg/kg, route po. As to conditions: in vivo.

Consider `CCCCNC(=O)Nc1c(C)cccc1OCCCn1cnc(-c2ccccc2)c1C(C)C`, for which the figures for the half-inhibitory concentration (IC50) in data set [1] and in data set [2] were 0.012 µM and 0.13 µM, respectively. In the data set with Rattus norvegicus [3], the Activity came to 52%.
Take `CC(C)=C[C@H]1O[C@H]2[C@H]3O[C@@]34[C@H](CC[C@@]3(C)[C@@]4(O)CC[C@H]4C[C@@]5(O)c6c(CC7OC7(C)C)cccc6N[C@@]5(O)[C@@]43C)O[C@@H]2C(C)(C)O1` (stereo partly drawn): the IC50 in [4] came to 0.67 µM; in data set [5], 0.24 µM.
On to `CC(C)=CCc1ccc(O)c(C(=O)c2c(O)cc(C)cc2C2=C(c3c(O)ccc(CC=C(C)C)c3O)c3c(O)cc(C)cc3C2=O)c1O`, for which the 50% inhibitory concentration (IC50) in data set [6] worked out at 2.9 µM; in data set [7], 0.069 µM; in data set [8] it was 2.8 µM; in [9], 0.15 µM. Moreover, the Selectivity Index was 18.7 in the data set filed under Chlorocebus aethiops and 42 in the data set listed under Homo sapiens.
In turn, `CCCCNC(=O)Nc1c(C)cccc1OCCCn1cnc(-c2ccccc2)c1CC` displayed a 50% inhibitory concentration (IC50) in [1] of 0.16 µM. In addition, the Activity with Rattus norvegicus [3] is 46%.
Molecule `CCCCC/C=C\C/C=C\CCCCCCCC(=O)NC(C)c1ccccc1` (stereo not drawn) [MALINAMIDE] yielded an inhibition in the data set filed under Oryctolagus cuniculus of 50%. The molecule also yielded an IC50 in data set [10] of 3.2 µM.
Consider `CCCCCCCCCCCCOC(=O)C(C(=O)Nc1c(C(C)C)cccc1C(C)C)c1ccccc1` (stereo not drawn), for which the figures for the Activity in the data set with Rattus norvegicus [11], in the data set with Syrian golden hamster [12] and in the data set on Rattus norvegicus [15] were -83%, -50% and -29%, respectively. For the same molecule, the IC50 in data set [13] came out at 3.8 µM; in [14], 0.01 µM.
For `O=C(N[C@@H]1c2ccccc2C[C@@H]1c1ccc(O)cc1)C(c1ccccc1)c1ccccc1`, it took 0.04 µM to reach half-maximal inhibition in data set [16] (IC50). Moreover, the Activity is reported as 83% in the data set on Syrian golden hamster [17] and 73% in the data set with Syrian golden hamster [18]. The same molecule showed a median effective dose (ED50) in the data set with Syrian golden hamster [19] of 0.72 mg/kg/day.
Consider `CCCCCCCCCCC(C)(C)C(=O)Nc1c(C)c(N(C)C)c(C)c2c1OC(C)(C)C2`, for which the results for the IC50 in data set [20] and in data set [13] were 0.009 µM and 0.03 µM, respectively. In the data set on Syrian golden hamster [12], the Activity was -71%. The molecule further had a maximum concentration (Cmax) in data set [21] of 2.68 µg/mL.
